Data on two molecules can be found in article PMC3492430, “In Vitro and In Vivo Activity of an Organic Tellurium Compound on Leishmania (Leishmania) chagasi” (PLoS ONE, 2012).

The structures appear in SMILES notation.

In the assay the target is T1, cathepsin B (cathepsin B-like cysteine protease) (Leishmania chagasi, UniProt Q9GQN7).
T1 construct: native enzyme in amastigote lysate
Description: spectrofluorometric protease assay in amastigote lysate with cathepsin B-specific substrate Abz-Gly-Ile-Val-Arg-Ala-Lys(Dnp)-OH. The assay is classed as biochemical.

The IC50 is the concentration that inhibits the measured activity by half. The low end stands for inhibition by little substance, the high end for a need for much substance.

T1 sequence (Q9GQN7 entry or part of it): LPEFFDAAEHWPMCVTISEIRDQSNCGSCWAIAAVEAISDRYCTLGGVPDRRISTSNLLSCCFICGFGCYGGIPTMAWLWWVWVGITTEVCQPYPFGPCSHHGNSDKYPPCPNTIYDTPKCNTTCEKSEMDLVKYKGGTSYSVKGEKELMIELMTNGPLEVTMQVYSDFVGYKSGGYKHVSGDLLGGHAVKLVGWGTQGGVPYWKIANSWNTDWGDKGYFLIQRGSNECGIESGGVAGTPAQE

As to `CCCNC(=O)[C@H]1O[C@@H]1C(=O)N[C@H](C(=O)N1CCC[C@H]1C(=O)O)[C@@H](C)CC` [CA074], half-maximal inhibition (IC50) was put at 2.41 ± 0.15 µM.

On to `COc1ccc([Te]2(Cl)OC3(CCCCC3)/C2=C\Cl)cc1` (centres unmarked) [RF07, 4-{2-Chloro-3-[chloromethylidene]-1-oxa-2-λ^4-telluraspiro[3.5]non-2-yl}phenyl Methyl Ether], for which the 50% inhibitory concentration (IC50) is 4.47 ± 0.13 µM.
